{"source": "patent EP0000190A1", "about": "“Solutions with a local anesthetic effect” (Dr. Karl Thomae GmbH, priority 1977, dated 1979)", "key": {"[1]": {"tested_on": "Cornea", "assay": "Local anaesthetic effect (touch stimulus) and corneal epithelium status after eye drops in rabbits, versus Kerakain", "format": "in vivo", "settings": "Kaninchen", "source_text": "Die überlegene kurzfristige lokalanästhetische Wirkung der neuen Lösungen wurde im Vergleich zu Proxymetacain (0,5%ige 2-Diäthyl-aminoäthyl-3-amino-4-propoxybenzoesäure-hydrochlorid-Lösung = Chibro® -Kerakain) am Kaninchen wie folgt geprüft: • Den Versuchstieren, die nach Spaltlampen-Untersuchung keine Schädigung des Cornea-Epithels zeigten und klinisch keine konjunktivale Entzündung aufwiesen, wurden jeweils 2 Tropfen der entsprechenden Augentropfen appliziert. Die Sensibilität der zentralen Cornea ist eine Minute nach Applikation durch Berührungsreiz, das gesamte Hornhautepithel und die Sensibilität 5, 10, 15 und 30 Minuten nach Applikation beurteilt worden. Der Untersuchen. der die Sensibilität und den Hornhaut-Epithel-Status beurteilte, war hierbei nicht darüber informiert, welches Auge jeden Tieres mit Chibro® -Kerakain behandelt war.\nDie nachfolgende Tabelle enthält die aufgefundenen Versuchsergebnisse: […]"}, "[2]": {"tested_on": "Mund- bzw. Rachenschleimhaut", "assay": "Local anaesthesia of human mouth and throat mucosa after spray from a metering pump valve", "format": "in vivo, Mensch", "settings": "2%ige NA 872-Lösung, 3-8 Hübe des Pump-Dosier-Ventils, Mund- bzw. Rachenschleimhaut des Menschen, 6 Probanden", "source_text": "Die oben aufgezeigte Wirkung konnte unter Heranziehung des Aesthe-siometers nach Cochet und Bonnet am menschlichen Auge mit Tropf- bzw. bei der Anwendung als Spray-Applikation mit Hilfe des Pump-Dosier-Ventils an der Mund- bzw. Rachenschleimhaut bestätigt werden. Bei einer Konzentration von 0,5 bis 1 % NA 872 und der Appli kation von 1 bis 2 Tropfen pro Auge tritt die lokalanästhetische Wirkung innerhalb von 30 bis 60 Sekunden ein, die Wirkungsdauer betrug 15 bis 30 Minuten, bzw. bei der Applikation einer 2%igen NA 872-Lösung mittels 3-8 Hüben des Pump-Dosier-Ventils an der Mund- bzw."}, "[3]": {"assay": "Acute toxicity", "settings": "mouse, in vivo, po, Maus, als Hydrochlorid"}, "[4]": {"settings": "0,5 % NA 872, 2 Tropfen, 5 Minuten nach Applikation"}, "[5]": {"settings": "1,0 % NA 872, 2 Tropfen, 5 Minuten nach Applikation"}, "[6]": {"settings": "1,0 % NA 872, 2 Tropfen, 10 Minuten nach Applikation"}, "[7]": {"settings": "1,0 % NA 872, 2 Tropfen, 15 Minuten nach Applikation"}, "[8]": {"settings": "2,0 % NA 872, 2 Tropfen, 5 Minuten nach Applikation"}, "[9]": {"settings": "2,0 % NA 872, 2 Tropfen, 10 Minuten nach Applikation"}, "[10]": {"settings": "Augentropfen, conclusion from the table"}}, "data": [{"compound": "Nc1c(Br)cc(Br)cc1CN[C@H]1CC[C@H](O)CC1", "note": "[NA 872, 2-Amino-3,5-dibrom-N-(trans-4-hydroxycyclohexyl)-benzylamin]", "values": [{"measurement": "Erhobener Anästhesie-Befund (A)", "setting": "[1]; 0,5 % NA 872, 2 Tropfen, 1 Minute nach Applikation", "result": "++"}, {"measurement": "Erhobener Anästhesie-Befund (A)", "setting": "[1]; [4]", "result": "+"}, {"measurement": "Hornhaut-Befund (HH)", "setting": "[1]; [4]", "result": "o.B."}, {"measurement": "Hornhaut-Befund (HH)", "setting": "[1]; 0,5 % NA 872, 2 Tropfen, 10 Minuten nach Applikation", "result": "o.B."}, {"measurement": "Hornhaut-Befund (HH)", "setting": "[1]; 0,5 % NA 872, 2 Tropfen, 15 Minuten nach Applikation", "result": "o.B."}, {"measurement": "Hornhaut-Befund (HH)", "setting": "[1]; 0,5 % NA 872, 2 Tropfen, 30 Minuten nach Applikation", "result": "o.B."}, {"measurement": "Erhobener Anästhesie-Befund (A)", "setting": "[1]; 1,0 % NA 872, 2 Tropfen, 1 Minute nach Applikation", "result": "++"}, {"measurement": "Erhobener Anästhesie-Befund (A)", "setting": "[1]; [5]", "result": "+"}, {"measurement": "Hornhaut-Befund (HH)", "setting": "[1]; [5]", "result": "o.B."}, {"measurement": "Erhobener Anästhesie-Befund (A)", "setting": "[1]; [6]", "result": "+"}, {"measurement": "Hornhaut-Befund (HH)", "setting": "[1]; [6]", "result": "o.B."}, {"measurement": "Erhobener Anästhesie-Befund (A)", "setting": "[1]; [7]", "result": "(+)"}, {"measurement": "Hornhaut-Befund (HH)", "setting": "[1]; [7]", "result": "o.B."}, {"measurement": "Hornhaut-Befund (HH)", "setting": "[1]; 1,0 % NA 872, 2 Tropfen, 30 Minuten nach Applikation", "result": "o.B."}, {"measurement": "Erhobener Anästhesie-Befund (A)", "setting": "[1]; 2,0 % NA 872, 2 Tropfen, 1 Minute nach Applikation", "result": "++"}, {"measurement": "Erhobener Anästhesie-Befund (A)", "setting": "[1]; [8]", "result": "++"}, {"measurement": "Hornhaut-Befund (HH)", "setting": "[1]; [8]", "result": "o.B."}, {"measurement": "Erhobener Anästhesie-Befund (A)", "setting": "[1]; [9]", "result": "+"}, {"measurement": "Hornhaut-Befund (HH)", "setting": "[1]; [9]", "result": "o.B."}, {"measurement": "Hornhaut-Befund (HH)", "setting": "[1]; 2,0 % NA 872, 2 Tropfen, 15 Minuten nach Applikation", "result": "o.B."}, {"measurement": "Hornhaut-Befund (HH)", "setting": "[1]; 2,0 % NA 872, 2 Tropfen, 30 Minuten nach Applikation", "result": "o.B."}, {"measurement": "Nebenwirkung auf das Epithel im Vergleich zur Vergleichslösung", "setting": "[1]; [10]", "result": "geringere Nebenwirkung auf das Epithel"}, {"measurement": "lokalanästhetische Wirkung im Vergleich zur Vergleichslösung", "setting": "[1]; [10]", "result": "kürzere lokalanästhetische Wirkung als die Vergleichslösung"}, {"measurement": "Anästhesie", "setting": "[2]", "result": "leichte Anästhesie"}, {"measurement": "LD50", "setting": "[3]", "result": 2720, "unit": "mg/kg"}]}]}
